Target: EVp28 (Gst-Evp28) ubiquitin ligase (Ectromelia virus, UniProt Q85318)
Assay: biochemical

| SMILES | IC50 [nM] |
| --- | --- |
| O=C1/C(=C\c2ccc(-c3cccc(C(F)(F)F)c3)o2)SC(=S)N1Cc1ccccc1 [Compound 54, (5E)-3-benzyl-2-thioxo-5-({5-[3-(trifluoromethyl)phenyl]-2-furyl}methylene)-1,3-thiazolidin-4-one] | 16 |
| O=C1/C(=C\c2nc3ccccc3[nH]2)SC(=S)N1c1ccc(F)cc1 [Compound 307] | 92 |

— patent US7566732B2, “Rhodanine compositions for use as antiviral agents” (priority 2003, dated 2009)
